Legend:
Type in all cases: in vivo, rat
[1] = tested on: oxaliplatin-induced mechanical allodynia; assay: Example 6: mechanical allodynia (von Frey PWT) in oxaliplatin CIPN model, dose effect, left (treated) vs right (vehicle) paw; conditions: Pregabalin 30 mg/kg p.o. each test day; both left and right paws
Source text: Animals were allowed to recover from transportation for at least one week before commencing experiments.
Data is presented as mean±SEM.

[2] = tested on: STZ-induced mechanical allodynia; assay: Example 7: mechanical allodynia (von Frey PWT) in streptozotocin diabetes-induced peripheral neuropathy model; conditions: Pregabalin 30 mg/kg p.o. 2 hr prior to each Von Frey test
Procedure: The aim of the study is to investigate the effect of a single intraplantar treatment with Nanoparticles from Example 3 at the doses of 117 g/L in 20 μL of injection volume, 58 g/L in 20 μL of injection volume, and 18 g/L in 10 μL of injection volume on the mechanical allodynia (as assessed using von Frey) that occurs following systemic administration of Streptozocin in the rat.
Experimental subjects: Sixty-six (66) adult male Sprague-Dawley rats (180-210 g) were used for this study. […]
Confirmation of hyperglycaemia: On Day 7 (D7) one drop of tail vein blood was obtained by a needle prick on the conscious rats. The blood glucose levels were measured in one drop of blood using an Exactive Vital (MictoTech Medical) blood glucose monitor. […]
Static mechanical (tactile) allodynia: Measurement of withdrawal threshold was achieved using calibrated (force; g) von-Frey monofilaments (Touch-Test Sensory Evaluator; Scientific Marketing Associates) applied to the plantar surface of the hind paw. Withdrawal threshold was determined by increasing and decreasing stimulus intensity and estimated using Dixon's up-down method (Dixon, 1980; Chaplan et al., 1994). […]
Von Frey readings are taken at baseline (pre-STZ), at D9 and at D11 post-STZ (neuropathic/allodynia baseline) and 2 hours post dose on D14. Von-Frey readings are repeated twice per week up to 3 weeks post-STZ (1 week post nanoparticles dosing). […]

[3] = tested on: oxaliplatin-induced mechanical allodynia; assay: Example 5: mechanical allodynia (von Frey PWT) in oxaliplatin chemotherapy-induced peripheral neuropathy model; conditions: Pregabalin 30 mg/kg p.o. each test day, tested 2 hr post dose
Procedure: The aim of this study was to investigate the effect of a single intraplantar treatment with Nanoparticles from Example 1 (NP1B) at the dose of 11 g/L, Nanoparticles from Example 2 (NP2B) at 53 g/L, Nanoparticles from Example 3 (NP20B) at 57 g/L, and Nanoparticles from Example 4 (NP20A) at 59 g/L, each in 20 μL of injection volume, on the mechanical allodynia (as assessed using von Frey) that occurs following systemic administration of oxaliplatin in the rat.
Experimental subjects: Seventy-two (72) adult male Sprague-Dawley rats were used for this study. […]
Static mechanical (tactile) allodynia evaluation: Measurement of paw withdrawal threshold (PWT) was achieved using calibrated (force; g) von-Frey monofilaments (Touch-Test Sensory Evaluator; Scientific Marketing Associates) applied to the plantar surface of the hind paw. Withdrawal threshold was determined by increasing and decreasing stimulus intensity and estimated using Dixon's up-down method. […]
Baseline readings for latency to withdrawal (sec) were assessed on three consecutive days (Day −3, Day −2 and Day −1). […]
Mechanical allodynia was subsequently re-assessed 2-3 times per week following injection, out to D26 post-oxaliplatin. […]

## CC(C)C[C@H](CN)CC(=O)O [Pregabalin]
[1]
  PWT levels compared to ‘Vehicle/Vehicle’ group (not neuropathic): not significantly different from the ‘Vehicle/Vehicle’ group (not neuropathic) on any of the test days
[2]
  PWT levels compared to “STZ/Vehicle” group: significantly different from the “STZ/Vehicle” group on all days tested
[3]
  PWT, allodynic response (positive control): rescued the allodynic response and recovered the PWT to the healthy baseline levels
